Reference: the NIST ThermoML archive (doi:10.1021/je060142u)
Numbers after ± are expanded uncertainties.

Assay: activity coefficient (dimensionless); of the first substance listed, at infinite dilution; xn = mol fraction of the nth substance listed
Settings: 101 kPa, Liquid, Chromatography, x1 = 0

SMILES | activity coefficient (303.15 K) | activity coefficient (313.15 K) | activity coefficient (323.15 K) | activity coefficient (333.15 K) | activity coefficient (343.15 K)
Cc1ccccc1C [1,2-dimethylbenzene] + CCCCn1cc[n+](C)c1.F[B-](F)(F)F | 4.2 ± 0.36 | 4.18 ± 0.36 | 4.16 ± 0.36 | 4.16 ± 0.36 | 4.14 ± 0.36
Cc1cccc(C)c1 [1,3-dimethylbenzene] + CCCCn1cc[n+](C)c1.F[B-](F)(F)F | 5.25 ± 0.45 | 5.24 ± 0.45 | 5.23 ± 0.45 | 5.23 ± 0.45 | 5.22 ± 0.45
Cc1ccc(C)cc1 [1,4-dimethylbenzene] + CCCCn1cc[n+](C)c1.F[B-](F)(F)F | 4.97 ± 0.43 | 5.15 ± 0.44 | 5.28 ± 0.46 | 5.33 ± 0.46 | 5.47 ± 0.47
CC(C)CC(C)(C)C [2,2,4-trimethylpentane] + CCCCn1cc[n+](C)c1.F[B-](F)(F)F | 92.7 ± 8 | 88.6 ± 7.7 | 83.8 ± 7.3 | 79.5 ± 6.9 | 75.5 ± 6.5
c1ccccc1 [benzene] + CCCCn1cc[n+](C)c1.F[B-](F)(F)F | 1.74 ± 0.15 | 1.76 ± 0.15 | 1.77 ± 0.15 | 1.8 ± 0.15 | 1.83 ± 0.16
C1CCCCC1 [cyclohexane] + CCCCn1cc[n+](C)c1.F[B-](F)(F)F | 32.4 ± 2.8 | 30.2 ± 2.6 | 28.3 ± 2.5 | 26.9 ± 2.3 | 24.6 ± 2.1
C1=CCCCC1 [cyclohexene] + CCCCn1cc[n+](C)c1.F[B-](F)(F)F | 14.1 ± 1.2 | 13.5 ± 1.2 | 12.9 ± 1.1 | 12.4 ± 1.1 | 11.9 ± 1
Cc1ccccc1 [toluene] + CCCCn1cc[n+](C)c1.F[B-](F)(F)F | 2.91 ± 0.25 | 2.94 ± 0.25 | 2.95 ± 0.25 | 2.99 ± 0.26 | 3.03 ± 0.26

Further lines, results first:

activity coefficient (303.15 K) | activity coefficient (313.15 K) | activity coefficient (323.15 K) | activity coefficient (333.15 K) | activity coefficient (343.15 K) | SMILES
414 ± 36 | 335 ± 29 | 320 ± 28 | 296 ± 26 | 279 ± 24 | CCCCCCCCCC [decane] + CCCCn1cc[n+](C)c1.F[B-](F)(F)F
5.61 ± 0.48 | 5.54 ± 0.48 | 5.49 ± 0.47 | 5.42 ± 0.47 | 5.37 ± 0.46 | CCc1ccccc1 [ethylbenzene] + CCCCn1cc[n+](C)c1.F[B-](F)(F)F
92.5 ± 8 | 86.7 ± 7.5 | 81.7 ± 7.1 | 78.9 ± 6.8 | 71.5 ± 6.2 | CCCCCCC [heptane] + CCCCn1cc[n+](C)c1.F[B-](F)(F)F
60.8 ± 5.3 | 57.5 ± 5 | 54.2 ± 4.7 | 50.5 ± 4.4 | 47 ± 4.1 | CCCCCC [hexane] + CCCCn1cc[n+](C)c1.F[B-](F)(F)F
48.7 ± 4.2 | 45.6 ± 3.9 | 42.4 ± 3.7 | 39.8 ± 3.5 | 37.3 ± 3.2 | CC1CCCCC1 [methylcyclohexane] + CCCCn1cc[n+](C)c1.F[B-](F)(F)F
224 ± 20 | 193 ± 17 | 187 ± 16 | 179 ± 16 | 170 ± 15 | CCCCCCCCC [nonane] + CCCCn1cc[n+](C)c1.F[B-](F)(F)F
139 ± 12 | 136 ± 12 | 127 ± 11 | 119 ± 10 | 111 ± 9.6 | CCCCCCCC [octane] + CCCCn1cc[n+](C)c1.F[B-](F)(F)F
40.7 ± 3.5 | 39.7 ± 3.4 | 38.1 ± 3.3 | 36.3 ± 3.1 | 35.8 ± 3.1 | CCCCC [pentane] + CCCCn1cc[n+](C)c1.F[B-](F)(F)F
2.29 ± 0.2 | 2.29 ± 0.2 | 2.34 ± 0.2 | 2.41 ± 0.21 | 2.48 ± 0.21 | C=Cc1ccccc1 [styrene] + CCCCn1cc[n+](C)c1.F[B-](F)(F)F
